We go through 5 molecules from patent US5461067A, “Retroviral protease inhibiting compounds” (priority 1994, dated 1995).

Data set [1] can be described thus: Cytotoxicity in MT4 cells. The data set is classed as cell-based. Particulars: human, concentration at which 50% of the cells remain viable, read-out: LC50 (the source's name). An excerpt: (§1) The IC50 is the concentration of compound that gives 50% inhibition of the cytopathic effect of HIV. The LC50 is the concentration of compound at which 50% of the cells remain viable.

The target of the next data set is HIV-1 protease (Human immunodeficiency virus type 1 group M subtype B, UniProt P04585). The data set can be described thus: Fluorogenic assay for screening inhibitors of HIV protease. Particulars: for inhibition at 0.0005 µM: pH 4.5, read-out: Percent Inhibition.
The test system of another data set is HIV-13B in MT4 cells. In words: Anti-HIV activity (inhibition of cytopathic effect of HIV) in MT4 cells. Particulars: Human immunodeficiency virus 1, concentration giving 50% inhibition of cytopathic effect of HIV. It counts as cell-based.
Text: as §1

Protocol for HIV-1 protease: The inhibitory potency of the compounds of the invention can be determined by the following method.
A compound of the invention is dissolved in DMSO and a small aliquot further diluted with DMSO to 100 times the final concentration desired for testing. The reaction is carried out in a 6×50 mm tube in a total volume of 300 microliters. The final concentrations of the components in the reaction buffer are: 125 mM sodium acetate, 1M sodium chloride, 5 mM dithiothreitol, 0.5 mg/ml bovine serum albumin, 1.3 μM fluorogenic substrate, 2% (v/v) dimethylsulfoxide, pH 4.5. After addition of inhibitor, the reaction mixture is placed in the fluorometer cell holder and incubated at 30° C. for several minutes. The reaction is initiated by the addition of a small aliquot of cold HIV protease. The fluorescence intensity (excitation 340 nm, emmision 490 nM) is recorded as a function of time. The reaction rate is determined for the first six to eight minutes. The observed rate is directly proportional to the moles of substrate cleaved per unit time. The percent inhibition is 100×(1-(rate in presence of inhibitor)/(rate in absence of inhibitor)).

As for `CC(C)c1nc(CN(C)C(=O)N[C@H](C(=O)NN(Cc2ccccc2)C[C@H](O)[C@H](Cc2ccccc2)NC(=O)OCc2ccccc2)C(C)C)co1` [Example 11, 5S-(Benzyloxycarbonyl)amino-2-N-((N-methyl-N-((2-isopropyl-4-oxazolyl)methyl)amino)carbonyl)-L-valinylamino-4S-hydroxy-1,6-diphenyl-2-azahexane], in data set [1], the CC50 was 18000 nM. On HIV-1 protease, the inhibition at 0.0005 µM was 69%. In the data set with HIV-13B in MT4 cells, this molecule returned a concentration for half-maximal inhibition (IC50) of 230 nM.
In the same order, the values of `CC(C)c1nc(CN(C)C(=O)N[C@H](C(=O)NN(Cc2ccccc2)C[C@H](O)[C@H](Cc2ccccc2)NC(=O)OCc2cncs2)C(C)C)co1` [Example 12, 5S-((5-Thiazolyl)methoxy)Carbonylamino-2-N-((N-methyl-N-((2-isopropyl-4-oxazolyl)methyl)amino)carbonyl)-L-valinylamino-4S-hydroxy-1,6-diphenyl-2-azahexane] are 53000 nM, 78% and 100 to 105 nM.
Turning to `CC(C)c1nc(CN(C)C(=O)N[C@H](C(=O)NN(Cc2ccccc2)C[C@H](O)[C@H](Cc2ccccc2)NC(=O)OCc2ccno2)C(C)C)co1` [Example 13D, 5S-N-((5-Isoxazolyl)methoxy)carbonylamino-2-N-((N-methyl-N-((2-isopropyl-4-oxazolyl)methyl)amino)carbonyl)-L-valinylamino-4S, hydroxy-1,6-diphenyl-2-azahexane], in data set [1], the CC50 came out at 58000 nM. On HIV-1 protease, the inhibition at 0.0005 µM worked out at 71%. The molecule further gave an IC50 with HIV-13B in MT4 cells of 102 to 150 nM.
For the molecule `COc1ccc(CN(C[C@H](O)[C@H](Cc2ccccc2)NC(=O)[C@@H](NC(=O)OCc2ccccn2)C(C)C)NC(=O)OC(C)(C)C)cc1` [Example 15, 5S-N-((2-Pyridinyl)methoxycarbonyl)-L-valinylamino-2-N-(t-butyloxycarbonyl)amino-4S-hydroxy-1-p-methoxyphenyl-6-phenyl-2-azahexane], in data set [1], the CC50 was above 100000 nM. The inhibition at 0.0005 µM on HIV-1 protease amounted to 44%. For the same molecule, the IC50 in the data set with HIV-13B in MT4 cells is 440 to 600 nM.
On to `COc1ccc(CN(C[C@H](O)[C@H](Cc2ccccc2)NC(=O)[C@@H](NC(=O)OCc2ccccn2)C(C)C)NC(=O)OCc2cccnc2)cc1` [Example 16, 5S-N-((2-Pyridinyl)methoxycarbonyl)-L-valinylamino-2-N-((3-pyridinyl)methoxycarbonyl)amino-4S-hydroxy-1-p-methoxyphenyl-6-phenyl-2-azahexane], for which the CC50 in data set [1] turned out to be 57000 nM. At HIV-1 protease, the half-inhibitory concentration (IC50) was found to be 0.5 nM and the inhibition at 0.0005 µM came out at 50%. In addition, the IC50 in the data set on HIV-13B in MT4 cells was 200 to 270 nM.

One may read the inhibition as the percentage by which the read-out fell short of the control. By IC50 is commonly meant the midpoint of a concentration-inhibition curve. A lower IC50 goes with greater potency.
